The results in this text go back to PubChem BioAssay (NCI).

What all share (test): inhibition of tumour cell growth, NCI panel, 48 h
Assay [1] has as its system SNB-19 CNS.
Assay [2] concerns CCRF-CEM leukemia.
For assay [3], the system named is TK-10 renal.
Assay [4] has as its system HCT-116 colon.
Assay [5] has as its system SK-MEL-28 melanoma.
Assay [6] deals with SR leukemia.
For assay [7], the system named is SW-620 colon.
In assay [8] the test system is ACHN renal.
Assay [9] deals with HCC-2998 colon.

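A five-concentration, 48-hour dose response in 96-well plates underlies each endpoint, interpolated linearly between surrounding concentrations. GI50 = concentration required for 50% inhibition of growth. TGI marks complete inhibition of growth.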

As to `CC(O)C1(CNc2cc(Cl)nc(N)n2)CCCCC1` (stereo not given), the TGI in [1], in assay [2], in [3], in assay [4], in assay [5] and in [6] was greater than 100 µM each time. Besides, the TGI in [7] and in assay [8] was greater than 100 µM in each case.
For `CCOP(=O)(OCC)/C(C#N)=C/c1cccn1C(C)C`, the TGI in assay [1], in assay [3], in [9], in [4], in assay [5] and in assay [6] was greater than 100 µM each time. The TGI in assay [7] and in assay [8] was greater than 100 µM in each case.
As for `CCNC(=O)c1cc(Cl)ccc1NC(=O)C12CC3CC(CC(C3)C1)C2`, the TGI in [1], in assay [2], in assay [3], in assay [4], in assay [5] and in [7] was greater than 100 µM throughout. In [8], this compound registered a TGI greater than 100 µM.
For `N#CC1(C#N)NC(c2ccccc2)C(C#N)(C#N)NC1c1ccccc1` (stereo not given), the TGI in assay [1], in [2], in assay [3], in [9], in [4] and in assay [5] was greater than 100 µM throughout. In addition, the TGI in [7] and in assay [8] was greater than 100 µM throughout.
Turning to `S=C1NC2=C(COc3ccccc32)C(c2ccc(Cl)cc2)N1` (stereo not given), the TGI in assay [1] is 45.3 µM; in [2] it was 64.7 µM; in [4], 28.9 µM; in [5], 46.8 µM; in [7], 78.8 µM; in [8], 43.6 µM.
Take `C=CC(O)(CBr)CCC(Br)C(=C)C` (stereo not given): the TGI in [1], in assay [2], in [3], in assay [9], in assay [4] and in assay [5] was greater than 10 µM in each case. Further, the TGI in assay [7] and in assay [8] was greater than 10 µM throughout.
Regarding `O=P1(c2ccccc2)c2ccccc2-c2ccccc21`, the TGI in assay [1], in assay [2], in assay [3], in assay [9], in assay [4] and in assay [5] was greater than 100 µM each time. For the same compound, the TGI in assay [7] is greater than 100 µM.
`CC1(c2sccc2Cl)CC(c2sccc2Cl)=C(C#N)C(=C(C#N)C#N)N1` (stereo not given): the TGI in assay [1] was 38.5 µM; in assay [2], greater than 100 µM; in assay [3] it was 31.6 µM; in assay [9], 29.4 µM; in assay [4], 32.2 µM; in assay [5] it was 34.8 µM. In addition, the TGI in assay [7] stood at 39 µM; in assay [8], 32.5 µM.
`CC(CC(N)C(=O)O)C(=O)O` (stereo not given): the TGI in assay [1], in assay [2], in [3], in assay [4], in [5] and in assay [6] was greater than 100 µM throughout. Moreover, the TGI in assay [7] and in [8] was greater than 100 µM each time.
For `CN(CC(=O)O)c1ncc2c(n1)C=CCC2`, the TGI in assay [1], in assay [2], in [3], in [4], in assay [5] and in assay [6] was greater than 100 µM each time. For the same compound, the TGI in [7] and in assay [8] was greater than 100 µM throughout.
As for `CC12C3C4C1C1C2C3C41CO` (stereo not given), the TGI in assay [1], in [2], in assay [3], in [4], in [5] and in [6] was greater than 100 µM throughout. Moreover, the TGI in assay [7] and in assay [8] was greater than 100 µM throughout.
Turning to `COc1cc(C(=O)O[C@H](C(=O)NCCCNC(=O)[C@@H](OC(=O)c2cc(OC)cc3c(C)cccc23)[C@]2(C)CO2)[C@]2(C)CO2)c2cccc(C)c2c1`, the TGI in [1] came out at 0.701 µM; in assay [3], 0.28 µM; in assay [9], 0.224 µM; in [5], 0.142 µM. Besides, the GI50 is less than 0.01 µM in assay [2]; 0.0275 µM in assay [3]; less than 0.0198 µM in assay [9]; less than 0.0375 µM in assay [5]; less than 0.01 µM in [7].
Take `CCOC(=O)/C=C(\C(=O)OCC)n1ccc(=O)n(Cc2cnnn2CCCCOC(C)=O)c1=O`: the TGI in [3] is 8.96 µM; in assay [9], 35.5 µM; in assay [4], greater than 45.3 µM; in assay [5], 21.4 µM; in [6], 5.49 µM; in assay [7], greater than 41.1 µM. This compound also registered a TGI in [8] of 5.52 µM. Besides, the GI50 in assay [6] was 1.68 µM.
Turning to `CSC1NC(c2ccccc2)=C(C#N)C(=O)N1C1OCC(OC(C)=O)C(OC(C)=O)C1OC(C)=O` (stereo not given), the TGI in assay [1], in assay [3], in assay [9], in assay [4], in assay [5] and in assay [6] was greater than 100 µM each time. In addition, the TGI in assay [7] and in assay [8] was greater than 100 µM each time.
On to `COc1ccc(/C=C2/CSCC3=C2NC(=S)NC3c2ccc(OC)c(OC)c2OC)c(OC)c1OC` (stereo not given), for which the TGI in assay [1] is 51.5 µM; in [2], greater than 100 µM; in assay [3], 75.5 µM; in assay [9] it was 77.9 µM; in [4], 60 µM; in assay [5] it was 81.9 µM. For the same compound, the TGI in assay [7] turned out to be 91.6 µM; in assay [8] it was 52.5 µM.
As to `Cc1ccc(C2(c3ccc(Cl)cc3)c3ccccc3C3=NCCN32)cc1` (stereo not given), the TGI was found to be 28.2 µM in [1]; 19.5 µM in assay [2]; 18.5 µM in assay [3]; 18.8 µM in assay [9]; 10.1 µM in assay [4]; 35.9 µM in assay [5]. The TGI in assay [7] was 32.6 µM; in assay [8], 19.8 µM.
